Assay results: US11578083B2, “Pyrimidinium compounds and their mixtures for combating animal pests” (BASF SE, priority 2017, dated 2023)

Columns and labels:
Assay type in all cases: in vivo
[1] = test system: vetch aphid (Megoura viciae); experiment: Test 7 vetch aphid, leaf disks (mixtures)
Procedure: (§1) For evaluating control of vetch aphid (Megoura viciae) through contact or systemic means the test unit consisted of 24-well-microtiter plates containing broad bean leaf disks.
The compounds or mixtures were formulated using a solution containing 75% water and 25% DMSO. Concentrations of formulated compounds or mixtures were sprayed onto the leaf disks at 2.5 μl, using a custom built micro atomizer, at two replications.
(§2) For experimental mixtures in these tests identical volumes of both mixing partners at the desired concentrations respectively, were mixed together.
After application, the leaf disks were air-dried and 5-8 adult aphids placed on the leaf disks inside the microtiter plate wells. The aphids were then allowed to suck on the treated leaf disks and incubated at 23±1° C., 50±5% RH for 5 days. Aphid mortality and fecundity was then visually assessed.

[2] = test system: yellow fever mosquito (Aedes aegypti); settings: Table 12; Yellow Fever Mosquito; solo application I-R-1, use rate 10 ppm
Procedure: For evaluating control of yellow fever mosquito (Aedes aegypti) the test unit consisted of 96-well-microtiter plates containing 200 μl of tap water per well and 5-15 freshly hatched A. aegypti larvae.
(§3) The compounds or mixtures were formulated using a solution containing 75% water and 25% DMSO. Different concentrations of formulated compounds or mixtures were sprayed onto the insect diet at 2.5 μl, using a custom built micro atomizer, at two replications.
as §2
After application, microtiter plates were incubated at 28±1° C., 80±5% RH for 2 days. Larval mortality was then visually assessed.

Chilo suppressalis [3] = experiment: B.3b Rice striped stem borer, foliar spraying
Procedure: All three pots (=replicates) of four to five-week old potted rice per treatment were simultaneously sprayed with 12 mL test solution. After spray application, plants were air dried in the laboratory before inoculation. After air-drying, 5 to 6-day old egg masses of CHILSU were used for inoculation. All stem borer-infested potted rice plants were transferred inside the screenhouse 1 day after inoculation until the final assessment. […] Whole plant damage was assessed before cutting each hill at the basal portion for tiller dissection. Each dissected tiller was inspected looking for dead (if possible) and alive stemborer larvae.

[4] = test system: Greenhouse Whitefly (Trialeurodes vaporariorum); experiment: Test 11 Greenhouse Whitefly, egg plant leaf disk (mixtures)
Procedure: For evaluating control of Greenhouse Whitefly (Trialeurodes vaporariorum) the test unit consisted of 96-well-microtiter plates containing a leaf disk of egg plant leaf disk with white fly eggs.
as §3, §2
After application, microtiter plates were incubated at 23±1° C., 65±5% RH for 6 days. Mortality of hatched crawlers was then visually assessed.

[5] = test system: boll weevil (Anthonomus grandis); experiment: Test 9 boll weevil, insect diet with eggs (mixtures)
Procedure: For evaluating control of boll weevil (Anthonomus grandis) the test unit consisted of 24-well-microtiter plates containing an insect diet and 20-30 A. grandis eggs.
The compounds or mixtures were formulated using a solution containing 75% water and 25% DMSO. Concentrations of formulated compounds or mixtures were sprayed onto the insect diet at 20 μl, using a custom built micro atomizer, at two replications.
as §2
After application, microtiter plates were incubated at 23±1° C., 50±5% RH for 5 days. Egg and larval mortality was then visually assessed.

Chilo suppressalis [6] = experiment: B.3c Rice striped stem borer, drench application; settings: Chilo suppressalis neonates, Dose 10 mg, 14 DAT
From the text: The test solution was poured onto the soil of each potted rice plant (=replicate) with five tillers each pot. After drench application, treated plants were transferred inside the screenhouse for three days prior to stemborer inoculation inside the laboratory. Three days after drench application, 5 to 6-day old egg masses of CHILSU were used for inoculation. All stemborer-infested potted rice plants were transferred inside the screenhouse 1 day after inoculation until the final assessment. […] Whole plant damage was assessed before cutting each hill at the basal portion for tiller dissection. Each dissected tiller was inspected looking for dead (if possible) and alive stemborer larvae.

[7] = test system: green peach aphid (Myzus persicae); experiment: Test 8 green peach aphid, artificial diet (mixtures)
From the text: For evaluating control of green peach aphid (Myzus persicae) through systemic means the test unit consisted of 96-well-microtiter plates containing liquid artificial diet under an artificial membrane.
The compounds or mixtures were formulated using a solution containing 75% water and 25% DMSO. Concentrations of formulated compounds or mixtures were pipetted into the aphid diet, using a custom built pipetter, at two replications.
as §2
After application, 5-8 adult aphids were placed on the artificial membrane inside the microtiter plate wells. The aphids were then allowed to suck on the treated aphid diet and incubated at 23±1° C., 50±5% RH for 3 days. Aphid mortality and fecundity was then visually assessed.

[8] = test system: vetch aphid (Megoura viciae); experiment: Test 1 vetch aphid, leaf disks (mixtures); settings: Table 1, solo application I-R-1, use rate 20 ppm
From the text: Synergism can be described as an interaction where the combined effect of two or more compounds is greater than the sum of the individual effects of each of the compounds. The presence of a synergistic effect in terms of percent control, between two mixing partners (X and Y) can be calculated using the Colby equation (Colby, S. R., 1967, Calculating Synergistic and Antagonistic Responses in Herbicide Combinations, Weeds, 15, 20-22):
When the observed combined control effect is greater than the expected combined control effect (E), then the combined effect is synergistic.
The analysis of synergism or antagonism between the mixtures or compositions was determined using Colby's equation.
as §1
The compounds or mixtures were formulated using a solution containing 75% water and 25% DMSO. Concentrations of formulated compounds or mixtures were sprayed onto the leaf disks at 2.5 μl, using a custom built micro atomizer, at two replications. […]
After application, the leaf disks were air-dried and 5-8 adult aphids placed on the leaf disks inside the microtiter plate wells. […] Aphid mortality and fecundity was then visually assessed.

[9] = test system: Cowpea aphid (Aphis craccivora); experiment: B.3 Cowpea aphid leaf disk test; settings: foliar, 120 h
Procedure: If not otherwise specified, the test solutions are prepared as follows:
The active compound is dissolved at the desired concentration in a mixture of 1:1 (vol:vol) distilled water: acetone. The test solution is prepared at the day of use.
B.3 Cowpea aphid (Aphis craccivora):
For evaluating control of Cowpea aphid through contact or systemic means the test unit consists of 24-well-microtiter plates containing broad bean leaf disks.
The compounds are formulated using a solution containing 75% v/v water and 25% v/v DMSO. Different concentrations of formulated compounds are sprayed onto the leaf disks at 2.5 μl, using a custom built micro atomizer, at two replications.
After application, the leaf disks are air-dried and 5-8 adult aphids placed on the leaf disks inside the microtiter plate wells. The aphids are then allowed to suck on the treated leaf disks and incubated at about 23±1° C. and about 50±5% relative humidity for 5 days. Aphid mortality and fecundity is then visually assessed.

SMILES: C[n+]1c([O-])c(-c2ccccc2)c(=O)n2c1SC[C@@H]2c1cnc(Cl)s1 [I-R-1, (3R)-3-(2-chlorothiazol-5-yl)-8-methyl-7-oxo-6-phenyl-2,3-dihydrothiazolo[3,2-a]pyrimidin-4-ium-5-olate]
- Average control % ([1]; Table 7.1, solo application I-R-1, use rate 2 ppm): 25%
- Average control % ([1]; Table 7.2, solo application I-R-1, use rate 2 ppm): 25%
- Average control % [2]: 0%
- Feeding damage (%) (Chilo suppressalis [3]; Chilo suppressalis neonates, foliar spraying, Dose 200 ppm, 14 DAT): 7%
- mortality at 200 ppm (Chilo suppressalis [3]; Chilo suppressalis, foliar, 336 h): 99%
- Average control % ([4]; Table 11.1, solo application I-R-1, use rate 50 ppm): 25%
- Average control % ([4]; Table 11.2, solo application I-R-1, use rate 10 ppm): 0%
- Average control % ([5]; Table 9.1, solo application I-R-1, use rate 50 ppm): 25%
- Average control % ([5]; Table 9.2, solo application I-R-1, use rate 10 ppm): 25%
- Feeding damage (%) (Chilo suppressalis [6]): 7%
- Average control % ([7]; Table 8.1, solo application I-R-1, use rate 0.4 ppm): 0%
- Average control % ([7]; Table 8.2, solo application I-R-1, use rate 0.4 ppm): 0%
- Average control % [8]: 0%
- mortality at 1 ppm [9]: 90%
